Data set [1] in a line: Pharmacokinetics in mice, single gavage. The data set is classed as in vivo, CD-1 mouse (male). The protocol:
Experimental purpose: To test the pharmacokinetics of the compound in mice
CD-1 mouse (male), vehicle (0.5% (w/v) methylcellulose 0.5% (v/v) Tween 80 aqueous solution), trifluoroacetate of compound 0027.
The vehicle was an aqueous solution of 0.5% (w/v) methylcellulose and 0.5% (v/v) Tween 80, and it was prepared according to the following procedure:
Formulation of Preparations for Intragastric Administration: […]
a. An appropriate amount of the test product was weighed and put into a glass bottle;
b. 70% volume of vehicle (0.5% (w/v) methyl cellulose 0.5% (v/v) Tween 80 aqueous solution) was added;
c. The preparation was stirred until it was visually homogeneous, and subjected to ultrasound in water bath as needed;
e. Make up the remaining volume of 0.5% methylcellulose+0.5% Tween 80, and the mixture was stirred until being visually homogeneous.
Animals in groups 1 and 2 were administrated 5 mg/mL and 30 mg/mL compounds by single gavage, with a dose volume of 10 mL/kg.
The body weight of the animals was weighed before administration, and the administration volume was calculated based on the body weight.
Whole blood samples (30 μL) were collected at the prescribed time (0.25, 0.5, 1, 2, 4, 6, 8, 24 h) through saphenous vein blood collection, and the actual blood collection time was recorded in the test record. The acceptable error of the collection time point was a time point within 1 hour of the administration ±1 minute, and the acceptable error of other time points is a theoretical time ±5%.
All blood samples were immediately transferred to labeled commercial centrifuge tubes containing K2-EDTA. After being collected, the blood samples were centrifuged at 3200 rpm for 10 minutes at 4° C. to aspirate the supernatant plasma, which was quickly placed in dry ice, kept at −20° C. or a lower temperature for LC-MS/MS analysis. The pharmacokinetic parameters were calculated.

Another data set relates to wild-type FGFR. Description: Inhibitory activity of wild-type kinase in vitro (overall conclusion). The data set is classed as biochemical, human. The settings on record: conclusion in words. The protocol:
The IC50 value was determined using ^33P isotope-labeled kinase activity test (Reaction Biology Corp) to evaluate the inhibitory ability of the compounds to be tested on human FGFR4 and VEGFR2.
Buffer conditions: 20 mM 4-(2-hydroxyethyl)-1-piperazineethanesulfonic acid (Hepes) (pH 7.5), 10 mM MgCl2, 1 mM ethylene glycol-bis-(2-aminoethyl ether)tetra acetic acid (EGTA), 0.02% polyoxyethylene lauryl ether (Brij35), 0.02 mg/ml bovine serum albumin (BSA), 0.1 mM sodium vanadate (Na3VO4), 2 mM dithiothreitol (DTT), 1% DMSO.
Experimental steps: At room temperature, the compounds to be tested were dissolved in DMSO to prepare a 10 mM solution for use. The substrate was dissolved in the freshly prepared buffer, and the kinase to be tested was added thereto and mixed well. The DMSO solution in which the compounds to be tested were dissolved was added to the above-mentioned homogeneous reaction solution using acoustic technology (Echo 550). The compound concentration in the reaction solution is 10 μM, 3.33 μM, 1.11 μM, 0.370 μM, 0.123 μM, 41.2 nM, 13.7 nM, 4.57 nM, 1.52 nM, 0.508 nM, or 10 μM, 2.50 μM, 0.62 μM, 0.156 μM, 39.1 nM, 9.8 nM, 2.4 nM, 0.61 nM, 0.15 nM, 0.038 nM. […] After the filter paper was repeatedly washed with 0.75% phosphoric acid solution, the radioactivity of the phosphorylated substrate remaining on the filter paper was measured. […]

Each structure is given as a SMILES string.

Usually Tmax stands for the time from dosing to the highest level. Take `COc1cc(OC)c(Cl)c(-c2nc(-c3nc(-c4cn(C)nc4C)cnc3N)cn(C)c2=O)c1`: in data set [1] (CD-1 mouse, gavage, 50 mpk), the AUC0-inf stood at 95.847 µM·h, the AUC0-last came to 85.826 µM·h, the MRT0-inf worked out at 5.39 h and the MRT0-last was determined as 4.33 h. Besides, in data set [1] (CD-1 mouse, gavage, 50 mpk), the T1/2 came out at 2.46 h and the Tmax was 1.00 h. Also, in data set [1] (CD-1 mouse, gavage, 300 mpk), the AUC0-last was 699.413 µM·h, the MRT0-last is on record as 11.1 h and the Tmax worked out at 7.00 h. The “pharmacokinetic indexes in mice” value in data set [1] (conclusion in words) was “good pharmacokinetic indexes”. For the same compound, in the data set on wild-type FGFR, the “inhibitory activity against wild-type FGFR” value is reported as “good inhibitory activity”; the “selectivity towards FGFR2 and FGFR3 compared to FGFR1 and FGFR4” value was “relative high selectivity”.
